In brackets after ≈: the same amount, converted by molar mass.

For orientation: MIC means the smallest concentration in the dilution series that meets the test's criterion for growth inhibition. High values mean a less susceptible organism, low ones a more susceptible organism.

Common to all, as to assay type: cell-based
The test system of assay [1] is fresh morning saliva. As to the kind of experiment: In-vitro test to reduce bad breath (medium inoculated with saliva, incubated, sniffed by panel). As for the experimental part: A sterile liquid medium inoculated with fresh morning saliva is incubated for a few days at 37° C. and then sniffed by a panel of testers.
As a control for the tests, Triclosan® (5-chloro-2-(2,4-dichlorophenoxy)phenol) was added to inoculated samples in a concentration of 0.05%.

Assay [2] concerns total number of bacteria in the samples of saliva. The assay can be described thus: Total number of bacteria in samples of saliva. Conditions: concentration of 1000 ppm.
For assay [3], the system named is Veilonella parvula. As to the kind of experiment: Minimum inhibiting concentration, serial-dilution test. On the procedure: (§1) The minimum inhibiting concentration (MIC) of isoeugenol methyl ether was determined in a serial-dilution test against various bacteria.
The subject of assay [4] is Streptococcus mutans. The assay is described as above. On the procedure:
as §1

The subject of assay [5] is Porphyromonas gingivalis. The description is as above. As for the experimental part: as §1
The subject of assay [6] is Prevotella intermedia. The assay is described as above. As for the experimental part: as §1
Assay [7] relates to Fusobacterium nucleatum. The description is as above. As for the experimental part:
as §1

Assay [8] deals with Escherichia coli. The description is as above. As for the experimental part:
as §1

Assay [9] has as its system Pseudomonas aeruginosa. Described as above. On the procedure: as §1
The test system of assay [10] is Staphylococcus aureus. Described as above. As for the experimental part:
as §1

In the case of `CC=Cc1ccc(OC)c(OC)c1` (racemic) [isoeugenol methyl ether, 1,2-dimethoxy-4-propenyl benzene], the “odour after the incubation period” value in [1] (0.01% added to inoculated samples) is “no odour”; in [1] (concentrations of significantly less than 0.01%), “a changed characteristic odour or a mixed odour was discernible in some cases”. In assay [1] (0.05% added to the inoculated medium just one hour before the sensory assessment), the “odour at sensory assessment” value was “an unpleasant mixed odour of bad breath and a faint isoeugenol methyl ether note”. Further, the minimum effective concentration in assay [1] (no odour after incubation of inoculated samples) is on record as 0.01%. The “reduction of the total number of bacteria in saliva samples” value in assay [2] is given as “no significant reduction”. In addition, the MIC in assay [3] is 250 µg/mL (≈ 1400 µM); in assay [4], greater than 1000 µg/mL; in [5] it was 500 µg/mL (≈ 2810 µM); in assay [6], 500 µg/mL (≈ 2810 µM); in assay [7], 250 µg/mL (≈ 1400 µM); in assay [8], greater than 1000 µg/mL. Also, the MIC in [9] and in assay [10] was greater than 1000 µg/mL in each case. In addition, the Type entry in assay [3] (Veilonella parvula, 250 ppm) is given as “bacteriostatic action”; in [4] it was “No action up to 1000 ppm”; in assay [6] (500 ppm) it was “bactericidal action”; in assay [7] (250 ppm) it was “bacteriostatic action”; in assay [8], “No action up to 1000 ppm”; in assay [9], “No action up to 1000 ppm”. In addition, the Type result in assay [10] was “No action up to 1000 ppm”. Moreover, the Type of action result in [5] (500 ppm) is recorded as “effectiveness”.
With `Oc1cc(Cl)ccc1Oc1ccc(Cl)cc1Cl` [Triclosan®, 5-chloro-2-(2,4-dichlorophenoxy)phenol, reference compound], in assay [1] (0.05% added to inoculated samples), the “odour after the incubation period” value is “the same faint odour of medium as the uninoculated samples”.
